Results: patent publication US5457121A, “Cis-hexahydro-5-(1,2,3,4-tetrahydro-2-naphthalenyl)pyrrolo<3,4-c> pyrroles as inhibitors of serotonin reuptake” (Eli Lilly and Company, priority 1994, dated 1995)

System: serotonin reuptake (5HT), rat cerebral cortex synaptosomes
Assay: Inhibition of synaptosomal reuptake of 3H-serotonin (3H-5HT) in cortical synaptosomes
Type: biochemical, rat (male Sprague-Dawley)
Details: 37° C., 5 min, 50 nM 3H-5HT, read-out: IC50 (nM) 5HT (concentration needed to inhibit the uptake of 3H-5HT by 50%)
Experimental: This general procedure is described in Wong et al., Drug Development Research, 6, 397-403 (1985).
Male Sprague-Dawley rats (110-150 gm) from Harlan Industries (Cumberland, Ind.) were fed Purina Chow ad libitum for at least three days before being used in the study. Rats were killed by decapitation. Whole brains were removed and dissected. Cerebral cortex was homogenized in 9 volumes of a medium containing 0.32 M sucrose and 10 mM glucose. Crude synaptosomal preparations were isolated after differential centrifugation at 1,000 g for 10 min. and 17,000 g for 28 min. The final pellets were suspended in the same medium and kept in ice until use within the same day.
Synaptosomal reuptake of ^3 H-serotonin (^3 H-5-hydroxytryptamine, ^3 H-5HT) was determined as follows: Cortical synaptosomes (equivalent to 1 mg protein) were incubated at 37° C. for 5 min. in 1 mL of Krebs-bicarbonate medium containing also 10 mM glucose, 0.1 mM iproniazide, 1 mM ascorbic acid, 0.17 mM EDTA and 50 nM ^3 H-5HT. The reaction mixture was immediately diluted with 2 mL of ice chilled Krebs-bicarbonate buffer and filtered under vacuum with a cell harvester (Brandel, Gaithersburg, Md.). Filters were rinsed twice with approximately 5 mL ice chilled 0.9% saline and were transferred to a counting vial containing 10 mL of scintillation fluid (PCS, Amersham, Arlington Heights, Ill.). Radioactivity was measured by a liquid scintillation spectrophotometer. Accumulation of ^3 H-5HT at 4° C. represented the background and was subtracted from all samples.

SMILES	IC50
CN1C[C@@H]2CN(C3CCc4ccccc4C3)C[C@@H]2C1 (relative stereo) [Example 1, cis-hexahydro-2-methyl-5-(1,2,3,4-tetrahydro-2-naphthalenyl) pyrrolo<3,4-c>pyrrole dimaleate]	122 nM
CN1C[C@@H]2CN(C3CCc4cccc(Cl)c4C3)C[C@@H]2C1 (relative stereo) [Example 2, cis-hexahydro-2-methyl-5-(1,2,3,4-tetrahydro-8-chloro-2-naphthalenyl)pyrrolo<3,4-c>pyrrole dimaleate]	42 nM
COc1cccc2c1CC(N1C[C@H]3CN(C)C[C@H]3C1)CC2 (relative stereo) [Example 3, cis-hexahydro-2-methyl-5-(1,2,3,4-tetrahydro-8-methoxy-2-naphthalenyl)pyrrolo<3,4-c>pyrrole dimaleate]	20 nM
CN1C[C@@H]2CN(C3CCc4cccc(O)c4C3)C[C@@H]2C1 (relative stereo) [Example 4, cis-hexahydro-2-methyl-5-(1,2,3,4-tetrahydro-8-hydroxy-2-naphthalenyl)pyrrolo<3,4-c>pyrrole dimaleate]	5.4 nM
COc1ccc(Br)c2c1CC(N1C[C@H]3CN(C)C[C@H]3C1)CC2 (relative stereo) [Example 5, cis-hexahydro-2-methyl-5-(1,2,3,4-tetrahydro-5-bromo-8-methoxy-2-naphthalenyl)pyrrolo<3,4-c>pyrrole dimaleate]	38 nM
COc1cccc2c1CC(N1C[C@H]3CN(Cc4ccccc4)C[C@H]3C1)CC2 (relative stereo) [Example 6, cis-hexahydro-2-benzyl-5-(1,2,3,4-tetrahydro-8-methoxy-2-naphthalenyl)pyrrolo<3,4-c>pyrrole dimaleate]	60 nM
COc1cccc2c1CC(N1C[C@H]3CNC[C@H]3C1)CC2 (relative stereo) [Example 7, cis-hexahydro-5-(1,2,3,4-tetrahydro-8-methoxy-2-naphthalenyl)pyrrolo<3,4-c>pyrrole dimaleate]	30 nM
COc1ccc(Br)c2c1CC(N1C[C@H]3CNC[C@H]3C1)CC2 (relative stereo) [Example 8, cis-hexahydro-5-(1,2,3,4-tetrahydro-5-bromo-8-methoxy-2-naphthalenyl)pyrrolo<3,4-c>pyrrole dimaleate]	50 nM
Cc1cccc2c1CC(N1C[C@H]3CN(C)C[C@H]3C1)CC2 (relative stereo) [Example 9, cis-hexahydro-2-methyl-5-(1,2,3,4-tetrahydro-8-methyl-2-naphthalenyl)pyrrolo<3,4-c>pyrrole dimaleate]	293 nM
Cc1ccc(Br)c2c1CC(N1C[C@H]3CN(C)C[C@H]3C1)CC2 (relative stereo) [Example 10, cis-hexahydro-2-methyl-5-(1,2,3,4-tetrahydro-5-bromo-8-methyl-2-naphthalenyl)pyrrolo<3,4-c>pyrrole dimaleate]	413 nM
COc1cccc2c1[C@@H](C)[C@@H](N1C[C@H]3CN(C)C[C@H]3C1)CC2 (relative stereo) [Example 11, cis-hexahydro-2-methyl-5-(cis-1-methyl-1,2,3,4-tetrahydro-8-methoxy-2-naphthalenyl)pyrrolo<3,4-c>pyrrole dimaleate]	65 nM
COc1cccc2c1[C@@H](C)[C@@H](N1C[C@H]3CNC[C@H]3C1)CC2 (relative stereo) [Example 12, cis-hexahydro-5-(cis-1-methyl-1,2,3,4-tetrahydro-8-methoxy-2-naphthalenyl)pyrrolo<3,4-c>pyrrole dimaleate]	340 nM
